Laboratory results published in patent publication US11351125B2, “Poly(n-butyl cyanoacrylate) nanoparticle with dual modifications, preparation method and use thereof” (Xuanwu Hospital of Capital Medical University, priority 2016, dated 2022).

What was measured:
[1] = Brain tissue distribution of docetaxel in rats; type: in vivo, Wistar rats; settings: rat, tail vein injection, HPLC
Description: The rats were subjected to tail vein injection with a docetaxel solution (a free drug), and docetaxel-loaded PBCA nanoparticles with dual modifications by PEG20000-cholesterol, respectively. The rats were killed at different time points after administration, respectively, and the brain tissues were taken, washed with physiological saline and weighed. After treatment, the content of docetaxel in the brain tissue was determined by HPLC.

[2] = test system: 4T1 cells (mouse breast cancer cells); experiment: Inhibition of tumor cell proliferation in vitro, MTT; type: cell-based; settings: 0.0001 nmol/ml (as docetaxel), 24 h
Description: (2) Method: MTT method was used to determine the proliferation state of tumor cells. The particular steps were as followed: 4T1 cells (mouse breast cancer cells) in the logarithmic growth phase were digested and counted, and then seeded to a 96-well plate at a density of 5×10^4/well. […] After further incubation for 24 h and 48 h, respectively, the old medium was pipetted off, and a medium containing 0.5 mg/ml MTT was added to each well. After further incubation for 4 h, the medium was pipetted off, and washing with PBS was performed twice. DMSO (200 μl) was added to dissolve the formazan crystal, and shaking was performed in dark for 10 min; and then the OD value of each well at 490 nm was determined by ELISA instrument. The OD value of the cells incubated without the addition of drug was used as control (100%), and the cell viability for each drug groups were calculated, so as to study the proliferation state of tumor cells, wherein 5 parallel wells were set for each group.

[3] = Pharmacokinetics of docetaxel after intravenous administration in rats; type: in vivo, Wistar rats; settings: rat, HPLC
Description: 6- to 8-week old male Wistar rats were subjected to jugular vein catheterization. […] The rats were administered with a docetaxel solution (a free drug) and docetaxel-loaded PBCA nanoparticles with dual modifications by PEG20000-cholesterol, respectively. […] After treatment, the content of docetaxel in the blood was determined by HPLC.

[4] = Brain tissue distribution of coumarin-6 in rats, Experiment 1 (time course); type: in vivo, Wistar rats; settings: rat, tail vein injection
Description: (1) Method: 6- to 8-week old male Wistar rats were randomly divided into 3 groups, with 21 rats for each group. The rats were subjected to tail vein injection with an equimolar amount of a coumarin-6 solution (a free drug), coumarin-6-loaded nanoparticles with single modification by cholesterol and PBCA nanoparticles with dual modifications by PEG20000-cholesterol as prepared in Example 1, respectively. The rats were killed at different time points (15 min, 30 min, 1 h, 2 h, 4 h, 8 h, 12 h) after administration, brain tissues were taken, and the content of coumarin-6 in brain was determined.

[5] = rat
Description: (2) Method: 6- to 8-week old male Wistar rats were randomly divided into 3 groups, with 6 rats for each group. The rats were anesthetized by intraperitoneal injection of a pentobarbital solution (40 mg/kg), and jugular vein catheterization was performed. […] After treatment, the content of coumarin-6 in the blood was determined.

docetaxel in the brain after intravenous administration [1] | sustained release in vivo (docetaxel detectable in blood) [3] [h] | content of coumarin-6 in the brain tissue ([4]; 15 min-12 h) [ng/g brain tissue] | coumarin-6 in the brain tissue 8 h after administration ([4]; 8 h) | release time in vivo (coumarin-6 detectable in blood) [5] [h] | AUC0-t ([5]; in vivo, iv) [µg·min/mL] | AUC0-∞ ([5]; in vivo, iv) [µg·min/mL] | C0 ([5]; in vivo, iv) [ng/mL] | CL ([5]; in vivo, iv) [mL/min] | Vd, λz ([5]; in vivo, iv) [L] | t1/2, λz ([5]; in vivo, iv) [h] | Compound | cell viability of the tumor cells [2]
could not be detected in the brain | < 2 |  |  |  |  |  |  |  |  |  | CC(=O)O[C@@]12CO[C@@H]1C[C@H](O)[C@@]1(C)C(=O)[C@H](O)C3=C(C)[C@@H](OC(=O)[C@H](O)[C@@H](NC(=O)OC(C)(C)C)c4ccccc4)C[C@@](O)([C@@H](OC(=O)c4ccccc4)[C@H]21)C3(C)C [docetaxel] | no significant change
 |  | ≤ 50 | no coumarin-6 was detected | ≤ 4 | 15.8 ± 2.4 | 16.0 ± 2.3 | 828.4 ± 139.0 | 6.4 ± 0.9 | 0.6 ± 0.3 | 1 ± 0.4 | coumarin-6 [Free drug] | 
